# Laboratory results reported in ChEMBL document CHEMBL1201862, “PubChem BioAssay data set” (2004).
#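 Five concentrations, 48 hours, 96-well plates. The concentration for 50% growth inhibition is given as GI50.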 Active and inactive are the calls of the source. Cut-off read from the data, not from the text of the source: active = GI50 up to about 1.1 µM and inactive = higher.
# Experiments:
# Assay in all cases: growth of human tumour cells (NCI), 48 h
# [1] = system: 786-0
# [2] = system: A549
# [3] = system: CAKI-1
# [4] = system: HCC 2998
# [5] = system: HCT-15
# [6] = system: HL-60
# [7] = system: MDA-MB-231
# [8] = system: MDA-MB-435
# [9] = system: NCI-H226
# [10] = system: NCI-H23
# [11] = system: NCI-H460
# [12] = system: OVCAR-8
# [13] = system: RPMI-8226
# [14] = system: SK-MEL-5
# [15] = system: SK-OV-3
# [16] = system: SNB-75
# [17] = system: U-251
# [18] = system: UACC-257
# [19] = system: UACC-62
# [20] = system: MOLT-4
Compound,GI50 [1],GI50 [2],GI50 [3],GI50 [4],GI50 [5],GI50 [6],GI50 [7],GI50 [8],GI50 [9],GI50 [10],GI50 [11],GI50 [12],GI50 [13],GI50 [14],GI50 [15],GI50 [16],GI50 [17],GI50 [18],GI50 [19],GI50 [20]
COC(=O)n1c(=O)nc2c3c(ncn21)Oc1c(c(-c2ccccc2)nn1-c1ccccc1)C3c1ccc(Cl)cc1 (stereo not drawn),1.49 µM (inactive),1.77 µM (inactive),1.63 µM (inactive),1.42 µM (inactive),1.6 µM,1.51 µM (inactive),1.67 µM (inactive),1.66 µM (inactive),1.58 µM (inactive),2.03 µM (inactive),1.65 µM (inactive),1.63 µM (inactive),2.1 µM (inactive),1.77 µM (inactive),3.29 µM (inactive),2 µM (inactive),1.71 µM (inactive),1.89 µM (inactive),1.95 µM (inactive),
COc1cccc2c1Cc1cc(-c3ccccc3)[n+](C)n1-2,7.24 µM (inactive),27.9 µM (inactive),66.8 µM (inactive),10.2 µM (inactive),31.3 µM,4.06 µM (inactive),13.2 µM (inactive),11.8 µM (inactive),11.7 µM (inactive),9.77 µM (inactive),14.5 µM (inactive),6.84 µM (inactive),4.18 µM (inactive),8.89 µM (inactive),33.2 µM (inactive),20 µM (inactive),5.36 µM (inactive),3.58 µM (inactive),15 µM (inactive),2.92 µM (inactive)
O=C(O)c1ccccc1CC(Cc1ccccc1)C(=O)O (stereo not drawn),> 100 µM (inactive),> 100 µM (inactive),> 100 µM (inactive),> 100 µM (inactive),> 100 µM,> 100 µM (inactive),> 100 µM (inactive),> 100 µM (inactive),> 100 µM (inactive),> 100 µM (inactive),> 100 µM (inactive),> 100 µM (inactive),> 100 µM (inactive),> 100 µM (inactive),> 100 µM (inactive),> 100 µM (inactive),> 100 µM (inactive),> 100 µM (inactive),,> 100 µM (inactive)
CC(=O)Nc1n[n+]([O-])c2cc(C)ccc2[n+]1[O-],3.26 µM (inactive),2.44 µM (inactive),2.52 µM (inactive),3.84 µM (inactive),1.7 µM,1.92 µM (inactive),6.81 µM (inactive),4.72 µM (inactive),4.32 µM (inactive),2.19 µM (inactive),0.378 µM (active),2.96 µM (inactive),2.83 µM (inactive),1.51 µM (inactive),5.86 µM (inactive),2.88 µM (inactive),2.92 µM (inactive),4.78 µM (inactive),1.78 µM (inactive),1.49 µM (inactive)
CCN(CC)CCC(=O)c1ccc(C)cc1,17.7 µM (inactive),> 100 µM (inactive),,43 µM (inactive),18.7 µM,24.5 µM (inactive),14.9 µM (inactive),19 µM (inactive),28.6 µM (inactive),21.3 µM (inactive),> 100 µM (inactive),33.4 µM (inactive),2.62 µM (inactive),13.1 µM (inactive),> 100 µM (inactive),11.5 µM (inactive),> 100 µM (inactive),17.2 µM (inactive),28.4 µM (inactive),18.5 µM (inactive)
NC(CCC(=O)O)C(=O)N1CCN(c2nc(N3CCCC3)c3nc(Cl)c(NCc4ccccc4)nc3n2)CC1 (stereo not drawn),12.1 µM (inactive),12.5 µM (inactive),17.8 µM (inactive),11.4 µM (inactive),14 µM,7.13 µM (inactive),14.4 µM (inactive),9.48 µM (inactive),12.3 µM (inactive),15.4 µM (inactive),10.3 µM (inactive),15.6 µM (inactive),5.79 µM (inactive),8.04 µM (inactive),18 µM (inactive),12 µM (inactive),13.8 µM (inactive),14.5 µM (inactive),11.2 µM (inactive),7.53 µM (inactive)
Cc1ccc2c(c1)[nH]c(=S)n2/C=C1\C(=O)Oc2ccccc2C1=O,42.8 µM (inactive),77.4 µM (inactive),19.6 µM (inactive),> 100 µM (inactive),44.9 µM,55 µM (inactive),50.5 µM (inactive),61.8 µM (inactive),> 100 µM (inactive),70.8 µM (inactive),44.1 µM (inactive),65.8 µM (inactive),65.2 µM (inactive),40.6 µM (inactive),,38.4 µM (inactive),53.1 µM (inactive),82 µM (inactive),13.1 µM (inactive),38.2 µM (inactive)
Cc1ccc(NC(Nc2ccc(C)cc2C)=C(/C=C(\Cl)[N+](=O)[O-])[N+](=O)[O-])c(C)c1,2.81 µM (inactive),17.3 µM (inactive),2.08 µM (inactive),23.3 µM (inactive),2.92 µM,0.592 µM (active),4.94 µM (inactive),2.87 µM (inactive),7 µM (inactive),5.94 µM (inactive),16.6 µM (inactive),2.81 µM (inactive),1.55 µM (inactive),5.9 µM (inactive),5.18 µM (inactive),1.11 µM (active),11.5 µM (inactive),4.81 µM (inactive),3.3 µM (inactive),1.53 µM (inactive)
COC(=O)c1ccc(NCC2=CC(=O)c3ccccc3C2=O)cc1,19.3 µM (inactive),22.5 µM (inactive),11.6 µM (inactive),19.4 µM (inactive),14.5 µM,3.1 µM (inactive),2.99 µM (inactive),12.2 µM (inactive),16.4 µM (inactive),14.5 µM (inactive),18.2 µM (inactive),29.8 µM (inactive),6.32 µM (inactive),11.7 µM (inactive),16.1 µM (inactive),20.7 µM (inactive),22.9 µM (inactive),14.3 µM (inactive),13.6 µM (inactive),3.01 µM (inactive)
COc1ccc2c(c1)/c(=C/C#N)c1c3ccccc3[n+](C)n21,3.95 µM (inactive),3.39 µM (inactive),16.1 µM (inactive),1.44 µM (inactive),20.1 µM,3.05 µM (inactive),24 µM (inactive),6.87 µM (inactive),4.29 µM (inactive),5.3 µM (inactive),7.23 µM (inactive),11.4 µM (inactive),1.96 µM (inactive),6.62 µM (inactive),15.5 µM (inactive),3.7 µM (inactive),2.75 µM (inactive),6.14 µM (inactive),13.6 µM (inactive),3.3 µM (inactive)
Oc1ccc(Cl)cc1CN1CCN(Cc2cc(Cl)ccc2O)C1,0.203 µM (active),1.75 µM (inactive),1.88 µM (inactive),1.03 µM (active),,2.02 µM (inactive),0.403 µM (active),1.33 µM (inactive),1.39 µM (inactive),1.19 µM (inactive),0.218 µM (active),0.525 µM (active),2.27 µM (inactive),0.973 µM (active),2.3 µM (inactive),1.52 µM (inactive),1.11 µM (active),1.86 µM (inactive),1.85 µM (inactive),0.174 µM (active)
CCC(NC1=NCCO1)c1cccs1 (stereo not drawn),15.3 µM (inactive),14.1 µM (inactive),17.2 µM (inactive),15.5 µM (inactive),15.6 µM,18.6 µM (inactive),20.7 µM (inactive),14.5 µM (inactive),20.3 µM (inactive),16.9 µM (inactive),15.7 µM (inactive),16.7 µM (inactive),25.1 µM (inactive),16.8 µM (inactive),13.8 µM (inactive),3.24 µM (inactive),13.5 µM (inactive),18 µM (inactive),16 µM (inactive),> 100 µM (inactive)
C1=N\c2ccc(cc2)-c2ccc(cc2)/N=C\c2ccccc2OCc2cccc(n2)COc2ccccc2/1,9.38 µM (inactive),72.8 µM (inactive),> 58.5 µM (inactive),> 100 µM (inactive),> 100 µM,> 100 µM (inactive),34 µM (inactive),> 100 µM (inactive),39.5 µM (inactive),15.1 µM (inactive),71.6 µM (inactive),31.8 µM (inactive),> 100 µM (inactive),> 31.2 µM (inactive),30.1 µM (inactive),2.83 µM (inactive),7.59 µM (inactive),> 100 µM (inactive),39.4 µM (inactive),> 100 µM (inactive)
COc1cc(C)c(C2NC(=O)c3ccccc3N2)cc1C (stereo not drawn),0.417 µM (active),0.596 µM (active),0.252 µM (active),1.33 µM (inactive),0.217 µM,0.1 µM (active),0.968 µM (active),0.0294 µM (active),0.652 µM (active),2.51 µM (inactive),0.342 µM (active),0.942 µM (active),0.0931 µM (active),0.135 µM (active),0.378 µM (active),0.0543 µM (active),0.396 µM (active),0.47 µM (active),0.201 µM (active),1.04 µM (active)
N#C[BH2-][n+]1ccc(C(=O)NNCc2ccccc2)cc1,> 100 µM (inactive),> 100 µM (inactive),> 100 µM (inactive),> 100 µM (inactive),> 100 µM,> 100 µM (inactive),> 100 µM (inactive),> 100 µM (inactive),> 100 µM (inactive),,> 100 µM (inactive),> 100 µM (inactive),> 100 µM (inactive),> 100 µM (inactive),,> 100 µM (inactive),> 100 µM (inactive),> 100 µM (inactive),> 100 µM (inactive),> 100 µM (inactive)
